Several values for one entry are separate records, joined by “and”; a condition that tells them apart may be missing. Identical values can stand only once.
Experiments:
[1] = Plasma concentrations in patients on oral antitumor therapy (LC-MS); format: in vivo, human; details: for Interpatient Coefficient of Variation [%]: patient plasma concentrations; for Median Concentration of All Samples [% of r.c.] / Min–Max Concentration [% of r.c.]: patient plasma, r.c. = respective cmin, all samples
[2] = Reference trough level (cmin) at steady state; format: in vivo, human; details: minimum steady-state plasma concentration, calculated based on cmax; ref supplement [7], [2,5,24], [51]
[3] = human

For Cc1ccc(NC(=O)c2ccc(CN3CCN(C)CC3)cc2)cc1Nc1nccc(-c2cccnc2)n1 [Imatinib], the “Measured plasma concentration” value ([1]; 400 mg/day, 24 h, ±4 h of trough level: yes) was 1998.2 ng/mL and 1309.6 ng/mL, the “Interpatient Coefficient of Variation [%]” value [1] was 29.4% and the “Median Concentration of All Samples [% of r.c.]” value [1] was 168.9 % of r.c.
With COc1cc2nccc(Oc3ccc(NC(=O)C4(C(=O)Nc5ccc(F)cc5)CC4)cc3)c2cc1OC [Cabozantinib] the “Measured plasma concentration” value ([1]; 20 mg/day, 24 h, ±4 h of trough level: yes) was 289.4 ng/mL and 291.0 ng/mL and 551.4 ng/mL, the “Measured plasma concentration” value ([1]; 40 mg/day, 24 h, ±4 h of trough level: yes) was 253.5 ng/mL and the “Measured plasma concentration” value ([1]; 60 mg/day, 24 h, ±4 h of trough level: no) was 1225.4 ng/mL and 700.9 ng/mL and 627.0 ng/mL. The “Measured plasma concentration” value ([1]; 40/60 mg/day, 24 h, ±4 h of trough level: yes) was 445.6 ng/mL and 562.2 ng/mL, the “Interpatient Coefficient of Variation [%]” value [1] was 58.5% and the “Median Concentration of All Samples [% of r.c.]” value [1] was 153.3 % of r.c.
In the case of O=C1CN2Cc3c(ccc(Cl)c3Cl)N=C2N1 [Anagrelide], the “cmin” value [2] is reported as 1.5 ng/mL.
In the case of Cc1ccc(Nc2nccc(N(C)c3ccc4c(C)n(C)nc4c3)n2)cc1S(N)(=O)=O [Pazopanib], the “Measured plasma concentration” value ([1]; 200 mg/day, 24 h, ±4 h of trough level: yes) is reported as 24300.0 ng/mL and 21520.0 ng/mL, the “Median Concentration of All Samples [% of r.c.]” value [1] is reported as 81.5 % of r.c and the “Min–Max Concentration [% of r.c.]” value [1] is reported as 76.6–86.5 % of r.c.
In the case of Cc1ccc(C(=O)Nc2ccc(CN3CCN(C)CC3)c(C(F)(F)F)c2)cc1C#Cc1cnc2cccnn12 [Ponatinib], the “Short-time stability (1h, 56°C) Accuracy [%]” value [3] is reported as 30.7%, the “Short-time stability (24h, 4°C, without daylight) Accuracy [%]” value [3] is reported as 95.7% and the “Short-time stability (24h, RT, with daylight) Accuracy [%]” value [3] is reported as 89.6%. The “Short-time stability (24h, RT, without daylight) Accuracy [%]” value [3] was 91.7%.
For COc1cc2nccc(Oc3ccc(NC(=O)Nc4cc(C)on4)c(Cl)c3)c2cc1OC [Tivozanib], the “Interpatient Coefficient of Variation [%]” value [1] was 53.8%, the “Median Concentration of All Samples [% of r.c.]” value [1] was 41.4 % of r.c and the “Min–Max Concentration [% of r.c.]” value [1] was 16.4–68.3 % of r.c.
With O=C(c1cc(Cc2n[nH]c(=O)c3ccccc23)ccc1F)N1CCN(C(=O)C2CC2)CC1 [Olaparib] the “Measured plasma concentration” value ([1]; 600 mg/day, 12 h, ±4 h of trough level: no) was 4442.9 ng/mL and 5552.4 ng/mL and 6053.6 ng/mL, the “Interpatient Coefficient of Variation [%]” value [1] was 51.6% and the “Median Concentration of All Samples [% of r.c.]” value [1] was 287.6 % of r.c.
With COc1cc2c(Nc3ccc(Br)cc3F)ncnc2cc1OCC1CCN(C)CC1 [Vandetanib] the “Measured plasma concentration” value ([1]; 300 mg/day, 24 h, ±4 h of trough level: no) was 757.7 ng/mL and 621.3 ng/mL, the “Median Concentration of All Samples [% of r.c.]” value [1] was 86.7 % of r.c and the “Min–Max Concentration [% of r.c.]” value [1] was 78.2–95.3 % of r.c.
With CNC(=O)c1ccccc1Sc1ccc2c(/C=C/c3ccccn3)n[nH]c2c1 [Axitinib] the “Measured plasma concentration” value ([1]; 6 mg/day, 12 h, ±4 h of trough level: no) was 0.3 ng/mL and the “Min–Max Concentration [% of r.c.]” value [1] was 6.0 % of r.c.
With O=c1[nH]c(=O)n([C@H]2C[C@H](O)[C@@H](CO)O2)cc1C(F)(F)F [Trifluridine] the “cmin” value [2] was 1135 ng/mL.

From publication PMC8699473, “An Easily Expandable Multi-Drug LC-MS Assay for the Simultaneous Quantification of 57 Oral Antitumor Drugs in Human Plasma” (Cancers, 2021)
